# According to ChEMBL document CHEMBL3045455, “Design, synthesis and evaluation of novel indomethacinflavonoid mutual prodrugs as safer NSAIDs” (Med Chem Res, 2011):
# What was measured:
# Rattus norvegicus [1] = test: Gastrointestinal toxicity in Rattus norvegicus Sprague-Dawley (rat) assessed as ulcer index at 83.98 mg/kg, po measured after 8 hr (reference value: 0.2 +/- 0.06); assay type: organism-based; parameters: dose 83.98 mg/kg, route oral; conditions: in vivo
# Rattus norvegicus [2] = test: Anti-inflammatory activity in carrageenan-induced paw edema Rattus norvegicus Sprague-Dawley (rat) model assessed as increase in paw volume at 20.52 mg/kg, po measured after 2 hr; assay type: functional
# Rattus norvegicus [3] = test: Anti-inflammatory activity in carrageenan-induced paw edema Rattus norvegicus Sprague-Dawley (rat) model assessed as increase in paw volume at 20.52 mg/kg, po measured after 4 hr; assay type: functional
# Mus musculus [4] = test: Analgesic activity in Mus musculus LACCA (mouse) assessed as inhibition of acetic acid-induced writhing at 17.49 mg/kg, po measured during 20 min period beginning 3 min after acetic acid challenge
# Rattus norvegicus [5] = test: Gastrointestinal toxicity in Rattus norvegicus Sprague-Dawley (rat) assessed as ulcer index at 82 mg/kg, po measured after 8 hr (reference value: 0.2 +/- 0.06); assay type: organism-based; parameters: dose 82 mg/kg, route oral; conditions: in vivo
# Rattus norvegicus [6] = test: Anti-inflammatory activity in carrageenan-induced paw edema Rattus norvegicus Sprague-Dawley (rat) model assessed as increase in paw volume at 23.95 mg/kg, po measured after 4 hr; assay type: functional
# Rattus norvegicus [7] = test: Anti-inflammatory activity in carrageenan-induced paw edema Rattus norvegicus Sprague-Dawley (rat) model assessed as increase in paw volume at 23.95 mg/kg, po measured after 2 hr; assay type: functional
# Mus musculus [8] = test: Analgesic activity in Mus musculus LACCA (mouse) assessed as inhibition of acetic acid-induced writhing at 17.1 mg/kg, po measured during 20 min period beginning 3 min after acetic acid challenge
# Rattus norvegicus [9] = test: Gastrointestinal toxicity in Rattus norvegicus Sprague-Dawley (rat) assessed as ulcer index at 48 mg/kg, po measured after 8 hr (reference value: 0.2 +/- 0.06); assay type: organism-based; parameters: dose 48 mg/kg, route oral; conditions: in vivo
# Mus musculus [10] = test: Analgesic activity in Mus musculus LACCA (mouse) assessed as inhibition of acetic acid-induced writhing at 10 mg/kg, po measured during 20 min period beginning 3 min after acetic acid challenge
# Rattus norvegicus [11] = test: Anti-inflammatory activity in carrageenan-induced paw edema Rattus norvegicus Sprague-Dawley (rat) model assessed as increase in paw volume at 12 mg/kg, po measured after 2 hr; assay type: functional
# Rattus norvegicus [12] = test: Anti-inflammatory activity in carrageenan-induced paw edema Rattus norvegicus Sprague-Dawley (rat) model assessed as increase in paw volume at 12 mg/kg, po measured after 4 hr; assay type: functional
smiles,measurement,setting,value
COc1ccc2c(c1)c(CC(=O)Oc1cc(O)c3c(c1)O[C@H](c1ccc(OC)c(O)c1)CC3=O)c(C)n2C(=O)c1ccc(Cl)cc1 [INDOMETHACIN-HESPERTIN],UI,Rattus norvegicus [1],0.54
same,Activity,Rattus norvegicus [2],37.78%
same,Activity,Rattus norvegicus [3],38.22%
same,inhibition in vivo at 17.49 mg/kg,Mus musculus [4],89.4%
COc1ccc2c(c1)c(CC(=O)Oc1cc(O)c3c(c1)O[C@H](c1ccc(O)cc1)CC3=O)c(C)n2C(=O)c1ccc(Cl)cc1 [INDOMETHACIN-NARINGENIN],UI,Rattus norvegicus [5],0.62
same,Activity,Rattus norvegicus [6],40.46%
same,Activity,Rattus norvegicus [7],39.13%
same,inhibition in vivo at 17.1 mg/kg,Mus musculus [8],86.7%
COc1ccc2c(c1)c(CC(=O)O)c(C)n2C(=O)c1ccc(Cl)cc1 [INDOMETHACIN],UI,Rattus norvegicus [9],5.54
same,inhibition in vivo at 10 mg/kg,Mus musculus [10],74.2%
same,Activity,Rattus norvegicus [11],48.35%
same,Activity,Rattus norvegicus [12],57.39%
